≈ marks a conversion by molar mass, not a printed value. Entries after “also recorded” stand apart in the source; their conditions may differ.
How the values were obtained:
colon explants [1] = test: Redox stress (DCF fluorescence) in colon explants; format: cell-based, mouse; conditions: 100 uM
Protocol: FIG. 15A is a bar graph showing DCF fluorescence of extracts from colon explants with (cGMP, open bars) or without (control, filled bars) cGMP treatment.
(§1) Colons were removed from sacrificed animals and incubated with 20 μM DCF for 30 minutes, then homogenized and the fluorescence measured (at FITC wavelengths; 485/535 nm). Specimens were incubated directly (30 min time point), or incubated for 30 min or 90 min under standard tissue culture conditions before adding DCF for the final 30 min (60 and 120 min time points).

colon explants [2] = test: Antioxidant gene expression in colon explants (RT-PCR, Western blotting); format: cell-based, mouse; conditions: 100 uM, 3-4 hours
Protocol: Explants of proximal and distal colon from mice were treated for 3-4 hours with 100 uM 8Br-cGMP and then the mucosa was harvested for analysis of antioxidant gene and protein expression by RT-PCR and Western blotting. Blots were reprobed for b-actin expression as a loading control.
In addition to attenuating proliferation, the activation of Foxo4 can upregulate antioxidant genes. To determine whether activation of endogenous PKG could affect the expression of antioxidant genes in the colon, explants of proximal and distal colon from mice were treated for 3-4 hours with 100 uM 8Br-cGMP and then the mucosa was harvested for analysis of antioxidant genes expression by RT-PCR or Western blotting. HPRT and b-actin were used as loading controls.

JNK = test: JNK-P in colon explants (immunoblotting); format: cell-based, mouse
Protocol: The relative expression of DUSP10 was measured by RT-PCR in wild type and knockout mice (Prkg2+/+ and Prkg2−/−), LS174T and HT29 colon cancer cells with or without PKG2 expression, and in colon explants treated with 8BrcGMP. Mucosa from different parts of the mouse digestive tract were analyzed by immunoblotting for JNKP, total JNK, DUSP10 and PKG2. Immunoblotting of ileum and proximal colon explants with or without 8Br-cGMP treatment to activate PKG2 was also performed.

[3] = in water; cited from earlier work
[4] = in vivo; cited from earlier work
[5] = test system: HCT116 colon cancer cells; test: cGMP content of colon cancer cells by competitive ELISA; conditions: colon cancer cell lines, 2 hours incubation
CD1 mouse colon explants = test: cGMP content of mucosa from mouse colon explants incubated in vitro (ELISA); format: cell-based; conditions: 2 hours
Protocol: The cGMP levels were standardized for protein content using OD280 of the extracts. […] Error bars indicate SEM. Asterisks indicate significance relative to control (p<0.05). CD1 mouse colon explants were incubated with PDE5 inhibitors in vitro. After 2 hours, the mucosa was harvested for analysis of cGMP content by ELISA (FIG. 10A).

colon mucosa [6] = test: cGMP content of colon mucosa after intraperitoneal injection (ELISA); format: in vivo, mouse
Protocol: The cGMP levels were standardized for protein content using OD280 of the extracts. […] Error bars indicate SEM. Asterisks indicate significance relative to control (p<0.05). […] FIG. 16A is a bar graph of ileum, proximal and distal tissue versus cGMP (pmol/mg protein). Mice were treated by intraperitoneal injection with PBS in vehicle (ctrl) or Vardenafil in vehicle (Vard.) (equivalence to human dose based on body weight). Colon mucosa was harvested 3 hrs later for analysis of cGMP content with ELISA kit. cGMP level was measured relative to total protein loading. […] Same WT/KO tissues were analyzed for apoptosis (TUNEL). Error bars indicate SEM and asterisks show significance (p<0.05). […] The mice were sacrificed 4 hours later and colon mucosa was harvested for analysis of cGMP content by ELISA. The cGMP levels were standardized for protein content using OD280 of the extracts. The error bars show SEM (FIG. 10B).

colon mucosa [7] = test: Colon mucosa homeostasis after 7 days of treatment (TUNEL, BrdU/Ki-67, goblet cell staining); format: in vivo, mouse; conditions: wild type mice, 5 mg/kg IP b.i.d. 7 days; for epithelial cell death / apoptosis (TUNEL) in colon / mature goblet cell numbers in colon: 5 mg/kg
Source text: Sections were stained for apoptotic cells using TUNEL in control and treated. TUNEL positive cells were found. […] FIG. 12B Quantitation of cell proliferation in the colon mucosa by BrdU incorporation. Asterisks in FIGS. 12A and 12B show statistical significance, p<0.05 of treated relative to control.
Mature goblet cells were counted in different sections of the colon following staining with Alcian blue-periodic acid schiff. FIG. 11A: Different regions of the gut (ilium of small intestine, ascending and descending portions of the colon). FIG. 11B: Relative mature goblet cell number in different sections of the proximal colon. Asterisks indicate significance (p<0.05, n=3).
Immunohistochemistry of tissue samples from Vardenafil treated and control mice was performed.

[8] = test system: colon mucosa of Prkg2−/− mice; test: Colon mucosa homeostasis after 7 days of treatment in PKG2 knockout animals; format: in vivo, mouse
Protocol: FIG. 16A is a bar graph of ileum, proximal and distal tissue versus cGMP (pmol/mg protein). […] Colon mucosa was harvested 3 hrs later for analysis of cGMP content with ELISA kit. cGMP level was measured relative to total protein loading. […] Same WT/KO tissues were analyzed for apoptosis (TUNEL). Error bars indicate SEM and asterisks show significance (p<0.05).
FIGS. 17A, 17B, 17C, and 17D are line graphs of ascending, trans, and descending tissue samples versus goblet cells/crypt (17A and B) or CgA/crypt (17C and D). […] Error bars show SEM, N>3, *p<0.05, by two-tailed t-test.
FIGS. 14A-14C show quantification of mature goblet cells in the ascending (A) and transverse colon (B) of wild type and PKG2 knockout animals. […] The increase in goblet cells observed in the wild type animals was not observed in the PKG2-deficient animals, which indicates the involvement of PKG2 in this process.

DSS-induced colitis = test: DSS-induced murine colitis model; format: in vivo, mouse
Protocol: FIG. 20A is a line graph of days of treatment versus disease activity index (DAI). […] The animal weight and stool-composition (diarrhea and bleeding) were recorded daily and are shown as disease activity index. Error bars indicate SD (n=3) and asterisks denote statistical significance (p<0.05, t-test). FIG. 20B is a line graph of proximal, mid, and distal tissue samples versus TUNEL/Crypt. Some mice were sacrificed at Day 5 with DSS for pathological analysis. Descending colons of mice treated with control (Ctrl) and Vardenafil (Vard.) were harvested and stained for apoptosis (TUNEL). Positive cells were subjected to quantification and the quantified cells were graphed. Error bars indicate SEM (n=3) and asterisks denote statistical significance (p<0.05 t-test).
Control animals were injected with PBS vehicle. After 5 days the DSS was replaced with water. Incidence and severity of diarrhea and body weight were recorded daily and combined in an index of disease severity.
The best characterized mouse model of IBD involves administration of dextran sulfate-sodium (DSS) in the drinking water, and this is toxic specifically to luminal epithelial cells of the distal colon.

colon mucosa [9] = test: Redox stress in colon mucosa by DCF fluorescence after IP treatment; format: in vivo, mouse; conditions: 4 h, p>0.05 by t-test (n=3)
Protocol: After 4 h the animals were sacrificed and the colon mucosa was harvested for analysis of redox stress using DCF fluorescence. Error bars indicate standard deviation (n=3), but p>0.05 by t-test (FIG. 15B)
as §1

Nc1nc2c(nc(Br)n2[C@@H]2O[C@@H]3COP(=O)(O)O[C@H]3[C@H]2O)c(=O)[nH]1 [8Br-cGMP]
redox stress (DCF fluorescence) in colon explants (colon explants [1]): decreased | antioxidant gene expression in colon explants (colon explants [2]): broad increase | basal activated JNK-P levels in colon explants (JNK): decrease

CCCc1nn(C)c2c(=O)nc(-c3cc(S(=O)(=O)N4CCN(C)CC4)ccc3OCC)[nH]c12 [Sildenafil, sildenafil]
Solubility [3]: 3500 µg/mL (≈ 7.37 mM) | t1/2 [4]: 3 to 5 h | intracellular cGMP levels [5]: significantly increased

CN1CC(=O)N2[C@H](c3ccc4c(c3)OCO4)c3[nH]c4ccccc4c3C[C@@H]2C1=O [Tadalafil, tadalafil]
t1/2 [4]: 17.5 h

CCCc1nc(C)c2c(=O)[nH]c(-c3cc(S(=O)(=O)N4CCN(CC)CC4)ccc3OCC)nn12 [Vardenafil, vardenafil]
cGMP levels in mouse colon explants (CD1 mouse colon explants): significantly increase | cGMP in the proximal colon epithelium (colon mucosa [6]; IP, lesser extent in terminal ileum and distal colon): rapidly increased | intracellular cGMP levels in mouse colon mucosa (colon mucosa [6]; intraperitoneal injection, mucosa harvested 4 hours later): significant increase | crypt proliferation (BrdU, Ki-67) in colon (colon mucosa [7]): reduced | epithelial cell death / apoptosis (TUNEL) in colon (colon mucosa [7]): reduction; also recorded: reduced | mature goblet cell numbers in colon (colon mucosa [7]): dramatic increase | epithelial cell death / apoptosis (TUNEL) in colon (colon mucosa [7]; listed as vardenafil): reduced | mature goblet cell numbers in colon (colon mucosa [7]; listed as vardenafil): significantly increased | increase in goblet cells ([8]; PKG2-deficient animals, 5 mg/kg IP b.i.d. 7 days): not observed | reduction in apoptosis ([8]; PKG2 knockouts, 5 mg/kg IP b.i.d. 7 days): not observed | homeostasis in Prkg2−/− animals ([8]; i.p. for several days): did not affect | death of animals (DSS-induced colitis; 5% DSS, n=4, half the untreated animals died): 25% | DSS induced apoptosis (TUNEL) (DSS-induced colitis; Day 5 with DSS): inhibited | DSS induced activation of JNK (DSS-induced colitis; descending colon, JNK-phospho T183/Y185): inhibited | DUSP10 levels in the colon mucosa (DSS-induced colitis; wild type mice): increased | redox stress levels in the colon mucosa (DCF fluorescence) (colon mucosa [9]): partly mimic antioxidant effects of exogenous cGMP; also recorded: could indeed affect redox stress levels | Solubility [3]: 110 µg/mL (≈ 0.225 mM) | t1/2 [4]: 4 to 5 h | intracellular cGMP levels [5]: significantly increased

From US20130123264A1, “COMPOSITIONS AND METHODS FOR TREATMENT OF INFLAMMATORY BOWEL DISORDERS AND INTESTINAL CANCERS” (priority 2011, published 2013)
